Results taken from PubChem BioAssay (NCI).
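A five-concentration, 48-hour dose response in 96-well plates underlies each endpoint, interpolated linearly between surrounding concentrations. At the GI50, growth is halved. The concentration for full growth arrest is given as TGI.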

Columns and labels:
Test in all cases: growth of human tumour cells (NCI), 48 h
SN12C renal = tested on: SN12C renal
SW-620 colon = tested on: SW-620 colon
SR leukemia = tested on: SR leukemia
EKVX NSCLC = tested on: EKVX NSCLC
MCF7 breast = tested on: MCF7 breast
MDA-MB-231 breast = tested on: MDA-MB-231 breast
HOP-92 NSCLC = tested on: HOP-92 NSCLC
SNB-19 CNS = tested on: SNB-19 CNS
SK-MEL-5 melanoma = tested on: SK-MEL-5 melanoma
T-47D breast = tested on: T-47D breast
BT-549 breast = tested on: BT-549 breast
PC-3 prostate = tested on: PC-3 prostate
DU-145 prostate = tested on: DU-145 prostate
OVCAR-8 ovarian = tested on: OVCAR-8 ovarian
A549 NSCLC = tested on: A549 NSCLC
SK-MEL-28 melanoma = tested on: SK-MEL-28 melanoma
NCI/ADR-RES ovarian = tested on: NCI/ADR-RES ovarian
KM12 colon = tested on: KM12 colon
NCI-H23 lung = tested on: NCI-H23 lung
COLO 205 colon = tested on: COLO 205 colon
HS 578T breast = tested on: HS 578T breast
RXF 393 renal = tested on: RXF 393 renal
NCI-H522 lung = tested on: NCI-H522 lung
HCT-15 colon = tested on: HCT-15 colon
CCRF-CEM leukemia = tested on: CCRF-CEM leukemia
CAKI-1 renal = tested on: CAKI-1 renal
OVCAR-3 ovarian = tested on: OVCAR-3 ovarian
A498 renal = tested on: A498 renal
UACC-62 melanoma = tested on: UACC-62 melanoma
K-562 leukemia = tested on: K-562 leukemia
HCT-116 colon = tested on: HCT-116 colon
SF-295 CNS = tested on: SF-295 CNS
LOX IMVI melanoma = tested on: LOX IMVI melanoma
HOP-62 NSCLC = tested on: HOP-62 NSCLC
U251 CNS = tested on: U251 CNS
SK-MEL-2 melanoma = tested on: SK-MEL-2 melanoma
OVCAR-4 ovarian = tested on: OVCAR-4 ovarian
HCC-2998 colon = tested on: HCC-2998 colon
TK-10 renal = tested on: TK-10 renal
RPMI-8226 leukemia = tested on: RPMI-8226 leukemia
786-0 renal = tested on: 786-0 renal
HL-60(TB) leukemia = tested on: HL-60(TB) leukemia
M14 melanoma = tested on: M14 melanoma
UO-31 renal = tested on: UO-31 renal
SNB-75 CNS = tested on: SNB-75 CNS
NCI-H226 lung = tested on: NCI-H226 lung
IGROV1 ovarian = tested on: IGROV1 ovarian
SK-OV-3 ovarian = tested on: SK-OV-3 ovarian
ACHN renal = tested on: ACHN renal
SF-539 CNS = tested on: SF-539 CNS
MDA-MB-435 = tested on: MDA-MB-435
MALME-3M melanoma = tested on: MALME-3M melanoma
MOLT-4 leukemia = tested on: MOLT-4 leukemia
HT29 colon = tested on: HT29 colon
SF-268 CNS = tested on: SF-268 CNS
NCI-H460 lung = tested on: NCI-H460 lung
OVCAR-5 ovarian = tested on: OVCAR-5 ovarian
UACC-257 melanoma = tested on: UACC-257 melanoma

Compound O=C1/C=C/[C@@H](O)[C@@H]2C[C@@H](O)C[C@H]2/C=C/CCC[C@H](C(F)(F)F)O1 has a GI50 (SN12C renal) of 779 nM, a TGI (SN12C renal) of 13800 nM and a GI50 (SW-620 colon) of 142 nM. It also gave a TGI (SW-620 colon) of 331 nM, a GI50 (SR leukemia) of 199 nM and a TGI (SR leukemia) of 591 nM. For the same compound, the GI50 (EKVX NSCLC) was 1330 nM, the TGI (EKVX NSCLC) was > 100000 nM and the GI50 (MCF7 breast) was 89.6 nM. It also gave a TGI (MCF7 breast) of 813 nM, a GI50 (MDA-MB-231 breast) of 268 nM and a TGI (MDA-MB-231 breast) of 774 nM. It also gave a GI50 (HOP-92 NSCLC) of 126 nM, a TGI (HOP-92 NSCLC) of 568 nM and a GI50 (SNB-19 CNS) of 6980 nM. For the same compound, the TGI (SNB-19 CNS) was > 100000 nM, the GI50 (SK-MEL-5 melanoma) was 128 nM and the TGI (SK-MEL-5 melanoma) was 320 nM. The GI50 (T-47D breast) was 184 nM, the TGI (T-47D breast) was 520 nM and the GI50 (BT-549 breast) was 211 nM. For the same compound, the TGI (BT-549 breast) was 10800 nM, the GI50 (PC-3 prostate) was 502 nM and the TGI (PC-3 prostate) was > 100000 nM. For the same compound, the GI50 (DU-145 prostate) was 955 nM, the TGI (DU-145 prostate) was > 100000 nM and the GI50 (OVCAR-8 ovarian) was 254 nM. For the same compound, the TGI (OVCAR-8 ovarian) was 9030 nM, the GI50 (A549 NSCLC) was 2100 nM and the TGI (A549 NSCLC) was > 100000 nM. For the same compound, the GI50 (SK-MEL-28 melanoma) was 96 nM, the TGI (SK-MEL-28 melanoma) was 650 nM and the GI50 (NCI/ADR-RES ovarian) was 408 nM. For the same compound, the TGI (NCI/ADR-RES ovarian) was 11400 nM, the GI50 (KM12 colon) was 1540 nM and the TGI (KM12 colon) was 16200 nM. The GI50 (NCI-H23 lung) was 285 nM, the TGI (NCI-H23 lung) was 4170 nM and the GI50 (COLO 205 colon) was 38.1 nM. For the same compound, the TGI (COLO 205 colon) was 150 nM, the GI50 (HS 578T breast) was 347 nM and the TGI (HS 578T breast) was > 100000 nM. For the same compound, the GI50 (RXF 393 renal) was 86.4 nM, the TGI (RXF 393 renal) was 38700 nM and the GI50 (NCI-H522 lung) was 191 nM. The TGI (NCI-H522 lung) was 515 nM, the GI50 (HCT-15 colon) was 320 nM and the TGI (HCT-15 colon) was 6980 nM. It also gave a GI50 (CCRF-CEM leukemia) of 205 nM, a TGI (CCRF-CEM leukemia) of 916 nM and a GI50 (CAKI-1 renal) of 178 nM. It also gave a TGI (CAKI-1 renal) of 27400 nM, a GI50 (OVCAR-3 ovarian) of 103 nM and a TGI (OVCAR-3 ovarian) of 464 nM. It also gave a GI50 (A498 renal) of 70.5 nM, a TGI (A498 renal) of 715 nM and a GI50 (UACC-62 melanoma) of 223 nM. The TGI (UACC-62 melanoma) was > 35400 nM, the GI50 (K-562 leukemia) was 336 nM and the TGI (K-562 leukemia) was > 69100 nM. The GI50 (HCT-116 colon) was 153 nM, the TGI (HCT-116 colon) was 385 nM and the GI50 (SF-295 CNS) was > 27000 nM. The TGI (SF-295 CNS) was > 100000 nM, the GI50 (LOX IMVI melanoma) was 137 nM and the TGI (LOX IMVI melanoma) was 388 nM. The GI50 (HOP-62 NSCLC) was 2140 nM, the TGI (HOP-62 NSCLC) was > 100000 nM and the GI50 (U251 CNS) was 1700 nM. For the same compound, the TGI (U251 CNS) was > 100000 nM, the GI50 (SK-MEL-2 melanoma) was 244 nM and the TGI (SK-MEL-2 melanoma) was 780 nM. The GI50 (OVCAR-4 ovarian) was 139 nM, the TGI (OVCAR-4 ovarian) was > 100000 nM and the GI50 (HCC-2998 colon) was 1140 nM. The TGI (HCC-2998 colon) was 9200 nM, the GI50 (TK-10 renal) was 88.8 nM and the TGI (TK-10 renal) was 780 nM. The GI50 (RPMI-8226 leukemia) was 274 nM, the TGI (RPMI-8226 leukemia) was 1040 nM and the GI50 (786-0 renal) was 126 nM. For the same compound, the TGI (786-0 renal) was 469 nM, the GI50 (HL-60(TB) leukemia) was 243 nM and the TGI (HL-60(TB) leukemia) was 605 nM. For the same compound, the GI50 (M14 melanoma) was 171 nM, the TGI (M14 melanoma) was 3710 nM and the GI50 (UO-31 renal) was 81.3 nM. For the same compound, the TGI (UO-31 renal) was 2250 nM, the GI50 (SNB-75 CNS) was 60.3 nM and the TGI (SNB-75 CNS) was > 100000 nM. It also gave a GI50 (NCI-H226 lung) of 68.7 nM, a TGI (NCI-H226 lung) of 680 nM and a GI50 (IGROV1 ovarian) of 561 nM. For the same compound, the TGI (IGROV1 ovarian) was 4160 nM, the GI50 (SK-OV-3 ovarian) was 16400 nM and the TGI (SK-OV-3 ovarian) was > 100000 nM. For the same compound, the GI50 (ACHN renal) was 197 nM, the GI50 (SF-539 CNS) was 504 nM and the TGI (SF-539 CNS) was > 100000 nM. For the same compound, the GI50 (MDA-MB-435) was 360 nM, the TGI (MDA-MB-435) was > 44500 nM and the GI50 (MALME-3M melanoma) was 43.7 nM. It also gave a TGI (MALME-3M melanoma) of 292 nM, a GI50 (MOLT-4 leukemia) of 174 nM and a TGI (MOLT-4 leukemia) of 625 nM. For the same compound, the GI50 (HT29 colon) was 67.8 nM, the TGI (HT29 colon) was 380 nM and the GI50 (SF-268 CNS) was 403 nM. For the same compound, the TGI (SF-268 CNS) was > 77800 nM, the GI50 (NCI-H460 lung) was 9540 nM and the TGI (NCI-H460 lung) was > 100000 nM. For the same compound, the GI50 (OVCAR-5 ovarian) was 933 nM, the TGI (OVCAR-5 ovarian) was 24700 nM and the GI50 (UACC-257 melanoma) was 53 nM. For the same compound, the TGI (UACC-257 melanoma) was 1010 nM.
